{
  "source": "patent US4393228A",
  "about": "“Epoxysuccinic acid derivatives” (Taisho Pharmaceutical Co., Ltd., priority 1977, dated 1983)",
  "note": "Where a name gives a salt, the structure may show the parent alone.",
  "data": [
    {"biological_target": "T1, papain (Carica papaya, UniProt P00784)", "T1 construct": "purchased Sigma Chem. Co", "T1 sequence (P00784 134-345)": "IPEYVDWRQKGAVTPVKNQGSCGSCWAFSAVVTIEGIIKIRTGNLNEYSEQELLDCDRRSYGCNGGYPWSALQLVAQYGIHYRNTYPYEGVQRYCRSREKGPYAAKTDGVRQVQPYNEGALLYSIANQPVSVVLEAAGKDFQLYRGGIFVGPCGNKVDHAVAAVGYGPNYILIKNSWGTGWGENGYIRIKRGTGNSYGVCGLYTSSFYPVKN", "assay": "Papain inhibitory activity (milk casein digestion)", "assay_type": "biochemical", "settings": "papain 80 μg/ml 0.5 ml, cysteine, pH 6.8, 1% milk casein, 40° C., 10 minutes", "protocol": "Papain inhibitory activity of the compounds of this invention was assayed as follows: To 0.5 ml of a solution of papain (80 μg/ml, Sigma Chem. Co., 2x cry.), were added 0.25 ml of 40 mM cysteine dissolved in 20 mM disodium ethylenediamine tetraacetic acid solution adjusted pH to 6.8 with sodium hydroxide and 0.25 ml of 33 mM phosphate buffer (pH 6.8) with or without inhibitor. After incubation at 40° C. for 15 minutes, the resulting mixture was added to 5 ml of 1% milk casein solution in the same buffer as described above, and further incubated at 40° C. for 10 minutes. Then the mixture was mixed with 5 ml of 0.44 M trichloroacetic acid solution and followed by filtration with a sheet of Toyo filter paper No. 4. The extinction of the filtrate was read at 280 nm. The percent inhibition was calculated from the formula, 100 x (B-A)/B; wherein B stands for the absorbance without inhibitor and A for the absorbance with inhibitor. The compound Nos. in Table 1 are as defined in Examples as described hereinafter.", "values": [
      {"compound": "CCCOC(=O)[C@H]1O[C@@H]1C(=O)O", "note": "(relative stereo) [EP-138, n-propyl potassium epoxysuccinate]", "ID50 (amount of inhibitor for 50% inhibition)": "0.82 γ"},
      {"compound": "CCOC(=O)C1OC1C(=O)N[C@@H](CCSC)C(=O)OC", "note": "(stereo partly drawn) [EP-155, N-(3-ethoxycarbonyloxirane-2-carbonyl)-L-methionine methyl ester]", "ID50 (amount of inhibitor for 50% inhibition)": "9.20 γ"},
      {"compound": "O=C(CC[C@H](NC(=O)C1OC1C(=O)OC1CCCCCCC1)C(=O)OCc1ccccc1)OCc1ccccc1", "note": "(stereo partly drawn) [EP-209, N-(3-cyclooctyloxycarbonyloxirane-2-carbonyl)-L-glutamic acid dibenzyl ester]", "ID50 (amount of inhibitor for 50% inhibition)": "2.45 γ"},
      {"compound": "O=C(O)C1OC1C(=O)OC1CC2C=CC1C2", "note": "(centres unmarked) [EP-58, norbor-5-en-2-yl potassium epoxysuccinate]", "ID50 (amount of inhibitor for 50% inhibition)": "0.07 γ"},
      {"compound": "O=C(O[C@@H]1CCCC[C@H]1Cl)[C@@H]1O[C@H]1C(=O)O[C@@H]1CCCC[C@H]1Cl", "note": "(relative stereo) [EP-7, di-2'-trans-chlorocyclohexyl epoxysuccinate]", "ID50 (amount of inhibitor for 50% inhibition)": "2.25 γ"},
      {"compound": "O=C(O)[C@H]1O[C@@H]1C(=O)OCc1ccc(Br)c(Cl)c1", "note": "(relative stereo) [EP-126, 3'-chloro-4'-bromobenzyl potassium epoxysuccinate]", "ID50 (amount of inhibitor for 50% inhibition)": "0.12 γ"},
      {"compound": "Cc1ccc(COC(=O)[C@@H]2O[C@H]2C(=O)O)cc1", "note": "(relative stereo) [EP-90, p-methylbenzyl potassium epoxysuccinate]", "ID50 (amount of inhibitor for 50% inhibition)": "0.25 γ"},
      {"compound": "O=C(OC1CCCC(Br)C1)C1OC1C(=O)OC1CCCC(Br)C1", "note": "(stereo not drawn) [EP-9, di-3'-cis-bromocyclohexyl epoxysuccinate]", "ID50 (amount of inhibitor for 50% inhibition)": "2.20 γ"},
      {"compound": "CCCCCCCCCCCCOC(=O)[C@H]1O[C@@H]1C(=O)O", "note": "(relative stereo) [EP-145, n-dodecyl potassium epoxysuccinate]", "ID50 (amount of inhibitor for 50% inhibition)": "0.14 γ"},
      {"compound": "O=C(O)[C@H]1O[C@@H]1C(=O)OCc1ccc(Br)cc1", "note": "(relative stereo) [EP-114, p-bromobenzyl potassium epoxysuccinate]", "ID50 (amount of inhibitor for 50% inhibition)": "0.26 γ"},
      {"compound": "O=C(NCCCC[C@H](NC(=O)C1OC1C(=O)O)C(=O)O)OCc1ccccc1", "note": "(stereo partly drawn) [EP-176, N-(3-carboxyoxirane-2-carbonyl)-N-carbobenzoxy-L-lysine dipotassium salt]", "ID50 (amount of inhibitor for 50% inhibition)": "1.06 γ"},
      {"compound": "O=C(O)[C@@H]1O[C@H]1C(=O)OCc1ccco1", "note": "(relative stereo) [EP-78, 2-furanmethyl potassium epoxysuccinate]", "ID50 (amount of inhibitor for 50% inhibition)": "0.54 γ"},
      {"compound": "CCOC(=O)C1OC1C(=O)N[C@@H](CC(=O)OCc1ccccc1)C(=O)OCc1ccccc1", "note": "(stereo partly drawn) [EP-193, N-(3-ethoxycarbonyloxirane-2-carbonyl)-L-aspartic acid dibenzyl ester]", "ID50 (amount of inhibitor for 50% inhibition)": "20.50 γ"},
      {"compound": "CCOC(=O)CCCNC(=O)[C@@H]1O[C@H]1C(=O)OCc1ccc(Cl)cc1", "note": "(relative stereo) [EP-189, N-(3-p-chlorobenzyloxycarbonyloxirane-2-carbonyl)-γ-aminobutylic acid ethyl ester]", "ID50 (amount of inhibitor for 50% inhibition)": "10.58 γ"},
      {"compound": "C#CCOC(=O)[C@H]1O[C@@H]1C(=O)O", "note": "(relative stereo) [EP-141, propargyl potassium epoxysuccinate]", "ID50 (amount of inhibitor for 50% inhibition)": "1.45 γ"},
      {"compound": "O=C(OCC12CC3CC(CC(C3)C1)C2)[C@@H]1O[C@H]1C(=O)OCC12CC3CC(CC(C3)C1)C2", "note": "(relative stereo) [EP-47, di-1-adamantanemethyl epoxysuccinate]", "ID50 (amount of inhibitor for 50% inhibition)": "0.25 γ"},
      {"compound": "O=C(O)[C@@H]1O[C@H]1C(=O)OCCCC1CCCCC1", "note": "(relative stereo) [EP-66, 3-cyclohexanepropyl potassium epoxysuccinate]", "ID50 (amount of inhibitor for 50% inhibition)": "0.08 γ"},
      {"compound": "O=C(OC1CC2CCC1C2)C1OC1C(=O)OC1CC2CCC1C2", "note": "(centres unmarked) [EP-55, dinorbornyl epoxysuccinate]", "ID50 (amount of inhibitor for 50% inhibition)": "0.28 γ"},
      {"compound": "CCOC(=O)C1OC1C(=O)N[C@@H](CCCNC(C)=O)C(=O)OCc1ccccc1", "note": "(stereo partly drawn) [EP-172, N^α -(3-ethoxycarbonyloxirane-2-carbonyl)-N^δ -acetyl-L-ornithine benzyl ester]", "ID50 (amount of inhibitor for 50% inhibition)": "6.20 γ"},
      {"compound": "Cc1cccc(COC(=O)C2OC2C(=O)N[C@@H](Cc2ccc(O)cc2)C(=O)OCc2ccccc2)c1", "note": "(stereo partly drawn) [EP-148, N-(3-m-methylbenzyloxycarbonyloxirane-2-carbonyl)-L-tyrosine benzyl ester]", "ID50 (amount of inhibitor for 50% inhibition)": "0.70 γ"},
      {"compound": "O=C(OCCCC1CCCC1)[C@@H]1O[C@H]1C(=O)OCCCC1CCCC1", "note": "(relative stereo) [EP-63, di-3-cyclopentanepropyl epoxysuccinate]", "ID50 (amount of inhibitor for 50% inhibition)": "54.82 γ"},
      {"compound": "O=C(CNC(=O)[C@@H]1O[C@H]1C(=O)OCCC1CCCCC1)OCc1ccccc1", "note": "(relative stereo) [EP-207, N-[3-(2'-cyclohexylethoxy)-carbonyloxirane-2-carbonyl]-glycine benzyl ester]", "ID50 (amount of inhibitor for 50% inhibition)": "6.52 γ"},
      {"compound": "O=C(O)[C@@H]1O[C@H]1C(=O)OCC1CCCCC1", "note": "(relative stereo) [EP-42, cyclohexanemethyl potassium epoxysuccinate]", "ID50 (amount of inhibitor for 50% inhibition)": "0.06 γ"},
      {"compound": "O=C(O)[C@H]1O[C@@H]1C(=O)OCCCc1ccccc1", "note": "(relative stereo) [EP-132, 3'-phenylpropyl potassium epoxysuccinate]", "ID50 (amount of inhibitor for 50% inhibition)": "0.17 γ"},
      {"compound": "O=C(O)[C@@H]1O[C@H]1C(=O)OCC1CCCO1", "note": "(relative stereo) [EP-76, tetrahydro-2-furanmethyl potassium epoxysuccinate]", "ID50 (amount of inhibitor for 50% inhibition)": "0.82 γ"},
      {"compound": "O=C(O)C1OC1C(=O)OC1CC2CCC1C2", "note": "(centres unmarked) [EP-56, norbornyl potassium epoxysuccinate]", "ID50 (amount of inhibitor for 50% inhibition)": "0.06 γ"},
      {"compound": "CCOC(=O)C1OC1C(=O)N[C@@H](Cc1ccccc1)C(=O)OCC", "note": "(stereo partly drawn) [EP-150, N-(3-ethoxycarbonyloxirane-2-carbonyl)-L-phenylalanine ethyl ester]", "ID50 (amount of inhibitor for 50% inhibition)": "3.10 γ"},
      {"compound": "O=C(OCc1ccc(I)cc1)[C@@H]1O[C@H]1C(=O)OCc1ccc(I)cc1", "note": "(relative stereo) [EP-111, di-p-iodobenzyl epoxysuccinate]", "ID50 (amount of inhibitor for 50% inhibition)": "2.91 γ"},
      {"compound": "O=C(O)[C@@H]1O[C@H]1C(=O)OCC1CCC=CCCC1", "note": "(relative stereo) [EP-74, 4-cyclooctenemethyl potassium epoxysuccinate]", "ID50 (amount of inhibitor for 50% inhibition)": "0.07 γ"},
      {"compound": "CCCOC(=O)[C@H]1O[C@@H]1C(=O)NCC(=O)OCc1ccccc1", "note": "(relative stereo) [EP-153, N-(3-n-propyloxycarbonyloxirane-2-carbonyl)-glycine benzyl ester]", "ID50 (amount of inhibitor for 50% inhibition)": "17.90 γ"},
      {"compound": "N=C(N)NCCC[C@H](NC(=O)C1OC1C(=O)O)C(=O)O", "note": "(stereo partly drawn) [EP-202, N-(3-carboxyoxirane-2-carbonyl)-L-arginine]", "ID50 (amount of inhibitor for 50% inhibition)": "21.93 γ"},
      {"compound": "O=C(NCCCC[C@H](NC(=O)C1OC1C(=O)OCCCc1ccccc1)C(=O)OCc1ccccc1)OCc1ccccc1", "note": "(stereo partly drawn) [EP-188, N^α -[3-(3'-phenylpropyloxy)-carbonyloxirane-2-carbonyl]-N^ε -carbobenzoxy-L-lysine benzyl ester]", "ID50 (amount of inhibitor for 50% inhibition)": "1.86 γ"},
      {"compound": "C[C@H]1CCCC[C@H]1OC(=O)[C@@H]1O[C@H]1C(=O)O[C@@H]1CCCC[C@@H]1C", "note": "(relative stereo) [EP-3, di-2'-cis-methylcyclohexyl epoxysuccinate]", "ID50 (amount of inhibitor for 50% inhibition)": "2.12 γ"},
      {"compound": "O=C(O)[C@@H]1O[C@H]1C(=O)OC1CCCCCCC1", "note": "(relative stereo) [EP-36, cyclooctyl potassium epoxysuccinate]", "ID50 (amount of inhibitor for 50% inhibition)": "0.07 γ"},
      {"compound": "CCOC(=O)[C@H](Cc1ccccc1)NC(=O)C1OC1C(=O)OC1CCCCC1C", "note": "(stereo partly drawn) [EP-212, N-[3-(2'-cis-methylcyclohexyloxy)carbonyloxirane-2-carbonyl]-L-phenylalanine ethyl ester]", "ID50 (amount of inhibitor for 50% inhibition)": "1.21 γ"},
      {"compound": "O=C(O)[C@H]1O[C@@H]1C(=O)OCc1ccccc1F", "note": "(relative stereo) [EP-124, o-fluorobenzyl potassium epoxysuccinate]", "ID50 (amount of inhibitor for 50% inhibition)": "0.10 γ"},
      {"compound": "O=C(OCC1CCC=CCCC1)[C@@H]1O[C@H]1C(=O)OCC1CCC=CCCC1", "note": "(relative stereo) [EP-73, di-4-cyclooctenemethyl epoxysuccinate]", "ID50 (amount of inhibitor for 50% inhibition)": "0.10 γ"},
      {"compound": "CCOC(=O)[C@H]1O[C@@H]1C(=O)NCCC(=O)OCc1ccccc1", "note": "(relative stereo) [EP-157, N-(3-ethoxycarbonyloxirane-2-carbonyl)-β-alanine benzyl ester]", "ID50 (amount of inhibitor for 50% inhibition)": "71.50 γ"},
      {"compound": "CCOC(=O)C1OC1C(=O)N[C@@H](CCCCNC(=O)OCc1ccccc1)C(=O)OCc1ccccc1", "note": "(stereo partly drawn) [EP-163, N^α -(3-ethoxycarbonyloxirane-2-carbonyl)-N^ε -carbobenzoxy-L-lysine benzyl ester]", "ID50 (amount of inhibitor for 50% inhibition)": "29.07 γ"},
      {"compound": "CCOC(=O)[C@H](Cc1ccccc1)NC(=O)C1OC1C(=O)OCc1ccccc1", "note": "(stereo partly drawn) [EP-159, N-(3-benzyloxycarbonyloxirane-2-carbonyl)-L-phenylalanine ethyl ester]", "ID50 (amount of inhibitor for 50% inhibition)": "0.27 γ"},
      {"compound": "CC1(C)C2CCC1(C)C(OC(=O)C1OC1C(=O)OC1CC3CCC1(C)C3(C)C)C2", "note": "(centres unmarked) [EP-53, dibornyl epoxysuccinate]", "ID50 (amount of inhibitor for 50% inhibition)": "0.45 γ"}
    ]}
  ]
}
